Assay results published in US7119075B2, “Use of herbal agents for potentiation of bioefficacy of anti infectives” (priority 2003, dated 2006).

Legend:
Gram negative bacteria = test: organism not typed; type: cell-based; settings: for MIC: read-out: MIC Drug alone
M. tuberculosis = test: MIC of drugs alone and with bioenhancer (Table 7); type: cell-based; settings: for MIC: Mycobacterium tuberculosis, Drug alone
MRSA 15187 = test: microbe, parasite or virus in culture; settings: Staphylococcus aureus
Gram positive bacteria = test: organism not typed; type: cell-based; settings: for MIC: read-out: MIC Drug alone
MRSA 450 = test: microbe, parasite or virus in culture; settings: Staphylococcus aureus
Yeast = test: MIC of drugs alone and with bioenhancer (Table 7); type: cell-based; settings: for MIC: Saccharomyces cerevisiae, read-out: MIC Drug alone
Filamentous fungi = test: organism not typed; type: cell-based
[1] = system: Mycobacterium avium ATCC 49601; test: Inhibitory effect of bioenhancers alone; type: cell-based
[2] = system: Escherichia coli ATCC 25922; test: Inhibitory effect of bioenhancers alone; type: cell-based
Salmonella typhi AIIMS 2 = test: Inhibitory effect of bioenhancers alone; type: cell-based
[3] = system: Pseudomonas aeruginosa ATCC 27583; test: Inhibitory effect of bioenhancers alone; type: cell-based
[4] = system: Staphylococcus hemolyticus ATCC 29978; test: Inhibitory effect of bioenhancers alone; type: cell-based
[5] = system: Aspergillus fumigatus SI-1; test: Inhibitory effect of bioenhancers alone; type: cell-based
Candida krusei ATCC 6258 = test: Inhibitory effect of bioenhancers alone; type: cell-based
Bacillus cereus RRL 02 = test: Inhibitory effect of bioenhancers alone; type: cell-based
[6] = system: Staphylococcus aureus ATCC 29313; test: Inhibitory effect of bioenhancers alone; type: cell-based
[7] = system: Mycobacterium tuberculosis H37Rv; test: Inhibitory effect of bioenhancers alone; type: cell-based
[8] = system: Mycobacterium tuberculosis 615; test: Inhibitory effect of bioenhancers alone; type: cell-based
[9] = system: Klebsiella pneumoniae ATCC 75388; test: Inhibitory effect of bioenhancers alone; type: cell-based
[10] = system: Mycobacterium intracelluare ATCC 13950; test: Inhibitory effect of bioenhancers alone; type: cell-based
[11] = system: Methicillin Resistant Staphylococcus aureus (MRSA); test: Inhibitory effect of bioenhancers alone; type: cell-based
[12] = system: Candida tropicalis ATCC 750; test: Inhibitory effect of bioenhancers alone; type: cell-based
[13] = system: Staphylococcus epidermidis ATCC 12228; test: Inhibitory effect of bioenhancers alone; type: cell-based
[14] = system: Aspergillus flavus MTCC 1973; test: Inhibitory effect of bioenhancers alone; type: cell-based

O=C(O)c1cn(C2CC2)c2cc(N3CCNCC3)c(F)cc2c1=O [Ciprofloxacin]
0.12 to 32 µg/mL: MIC (Gram positive bacteria)
0.5 to 1 µg/mL: MIC (M. tuberculosis)
64 µg/mL: MIC (MRSA 15187) | MIC (MRSA 450)
0.03 to 0.5 µg/mL: MIC (Gram negative bacteria)

CN[C@H](CC(C)C)C(=O)N[C@H]1C(=O)N[C@@H](CC(N)=O)C(=O)N[C@H]2C(=O)N[C@H]3C(=O)N[C@H](C(=O)N[C@H](C(=O)O)c4cc(O)cc(O)c4-c4cc3ccc4O)[C@H](O)c3ccc(c(Cl)c3)Oc3cc2cc(c3O[C@@H]2O[C@H](CO)[C@@H](O)[C@H](O)[C@H]2O[C@H]2C[C@](C)(N)[C@H](O)[C@H](C)O2)Oc2ccc(cc2Cl)[C@H]1O [Vancomycin]
0.03 to 8 µg/mL: MIC (Gram positive bacteria)

COCC1=C(C(=O)O)N2C(=O)[C@@H](NC(=O)/C(=N\OC)c3csc(N)n3)[C@H]2SC1 [Cefpedoxime]
0.03 to 64 µg/mL: MIC Drug alone (Gram negative bacteria)
0.12 to 16 µg/mL: MIC Drug alone (Gram positive bacteria)

CC(=O)N1CCN(c2ccc(OCC3COC(Cn4ccnc4)(c4ccc(Cl)cc4Cl)O3)cc2)CC1 (centres unmarked) [Ketoconazole]
0.12 to 0.5 µg/mL: MIC (Yeast)
0.25 to 2 µg/mL: MIC (Filamentous fungi; read-out: MIC Drug alone)

CC1COc2c(N3CCN(C)CC3)c(F)cc3c(=O)c(C(=O)O)cn1c23 (centres unmarked) [Ofloxacin]
0.5 to 25 µg/mL: MIC Drug alone (M. tuberculosis)
0.5 to 2.5 µg/mL: MIC (M. tuberculosis)
0.12 to 32 µg/mL: MIC (Gram positive bacteria)
0.06 to 32 µg/mL: MIC (Gram negative bacteria)

CO[C@H]1/C=C/O[C@@]2(C)Oc3c(C)c(O)c4c(O)c(c(/C=N/N5CCN(C)CC5)c(O)c4c3C2=O)NC(=O)/C(C)=C\C=C\[C@H](C)[C@H](O)[C@@H](C)[C@@H](O)[C@@H](C)[C@H](OC(C)=O)[C@@H]1C [Rifampicin]
0.06 to 0.5 µg/mL: MIC (M. tuberculosis)

NCC[C@H](O)C(=O)N[C@@H]1C[C@H](N)[C@@H](O[C@H]2O[C@H](CN)[C@@H](O)[C@H](O)[C@H]2O)[C@H](O)[C@H]1O[C@H]1O[C@H](CO)[C@@H](O)[C@H](N)[C@H]1O [Amikacin]
2 to 32 µg/mL: MIC (Gram positive bacteria)
0.5 to 1 µg/mL: MIC (M. tuberculosis)
0.12 to 4 µg/mL: MIC (Gram negative bacteria)

NNC(=O)c1ccncc1 [Isoniazid]
0.12 to 32 µg/mL: MIC (M. tuberculosis)

C=CC1=C(C(=O)O)N2C(=O)[C@@H](NC(=O)/C(=N\O)c3csc(N)n3)[C@H]2SC1 [Cefdinir]
0.06 to 32 µg/mL: MIC (Gram positive bacteria)
0.25 to 64 µg/mL: MIC (Gram negative bacteria)

C[C@@H]1[C@H](O)[C@@H](C)/C=C/C=C/C=C/C=C/C=C/C=C/C=C/[C@H](O[C@@H]2O[C@H](C)[C@@H](O)[C@H](N)[C@@H]2O)C[C@@H]2O[C@](O)(C[C@@H](O)C[C@@H](O)[C@H](O)CC[C@@H](O)C[C@@H](O)CC(=O)O[C@H]1C)C[C@H](O)[C@H]2C(=O)O [Amphotericin B]
0.25 to 4 µg/mL: MIC Drug alone (Filamentous fungi; Drug alone)
0.25 to 2.0 µg/mL: MIC Drug alone (Yeast; Drug alone)

3′,5-Dihydroxy flavone 7-O-β-D-galacturonide-4′-O-β-D-glucopyranoside [pure molecule of Cuminum cyminum]
++++ (No inhibition): inhibitory effect ([1]; conc. 0.2 μg/ml) | inhibitory effect ([1]; conc. 0.8 μg/ml) | inhibitory effect ([1]; conc. 3.12 μg/ml) | inhibitory effect ([1]; conc. 12.5 μg/ml) | inhibitory effect ([1]; conc. 50 μg/ml) | inhibitory effect ([1]; conc. 100 μg/ml) | inhibitory effect ([2]; conc. 0.2 μg/ml) | inhibitory effect ([2]; conc. 0.8 μg/ml) | inhibitory effect ([2]; conc. 3.12 μg/ml) | inhibitory effect ([2]; conc. 12.5 μg/ml) | inhibitory effect ([2]; conc. 50 μg/ml) | inhibitory effect ([2]; conc. 100 μg/ml) | inhibitory effect (Salmonella typhi AIIMS 2; conc. 0.2 μg/ml) | inhibitory effect (Salmonella typhi AIIMS 2; conc. 0.8 μg/ml) | inhibitory effect (Salmonella typhi AIIMS 2; conc. 3.12 μg/ml) | inhibitory effect (Salmonella typhi AIIMS 2; conc. 12.5 μg/ml) | inhibitory effect (Salmonella typhi AIIMS 2; conc. 50 μg/ml) | inhibitory effect (Salmonella typhi AIIMS 2; conc. 100 μg/ml) | inhibitory effect ([3]; conc. 0.2 μg/ml) | inhibitory effect ([3]; conc. 0.8 μg/ml) | inhibitory effect ([3]; conc. 3.12 μg/ml) | inhibitory effect ([3]; conc. 12.5 μg/ml) | inhibitory effect ([3]; conc. 50 μg/ml) | inhibitory effect ([3]; conc. 100 μg/ml) | inhibitory effect ([4]; conc. 0.2 μg/ml) | inhibitory effect ([4]; conc. 0.8 μg/ml) | inhibitory effect ([4]; conc. 3.12 μg/ml) | inhibitory effect ([4]; conc. 12.5 μg/ml) | inhibitory effect ([4]; conc. 50 μg/ml) | inhibitory effect ([4]; conc. 100 μg/ml) | inhibitory effect ([5]; conc. 0.2 μg/ml) | inhibitory effect ([5]; conc. 0.8 μg/ml) | inhibitory effect ([5]; conc. 3.12 μg/ml) | inhibitory effect ([5]; conc. 12.5 μg/ml) | inhibitory effect ([5]; conc. 50 μg/ml) | inhibitory effect ([5]; conc. 100 μg/ml) | inhibitory effect (Candida krusei ATCC 6258; conc. 0.2 μg/ml) | inhibitory effect (Candida krusei ATCC 6258; conc. 0.8 μg/ml) | inhibitory effect (Candida krusei ATCC 6258; conc. 3.12 μg/ml) | inhibitory effect (Candida krusei ATCC 6258; conc. 12.5 μg/ml) | inhibitory effect (Candida krusei ATCC 6258; conc. 50 μg/ml) | inhibitory effect (Candida krusei ATCC 6258; conc. 100 μg/ml) | inhibitory effect (Bacillus cereus RRL 02; conc. 0.2 μg/ml) | inhibitory effect (Bacillus cereus RRL 02; conc. 0.8 μg/ml) | inhibitory effect (Bacillus cereus RRL 02; conc. 3.12 μg/ml) | inhibitory effect (Bacillus cereus RRL 02; conc. 12.5 μg/ml) | inhibitory effect (Bacillus cereus RRL 02; conc. 50 μg/ml) | inhibitory effect (Bacillus cereus RRL 02; conc. 100 μg/ml) | inhibitory effect ([6]; conc. 0.2 μg/ml) | inhibitory effect ([6]; conc. 0.8 μg/ml) | inhibitory effect ([6]; conc. 3.12 μg/ml) | inhibitory effect ([6]; conc. 12.5 μg/ml) | inhibitory effect ([6]; conc. 50 μg/ml) | inhibitory effect ([6]; conc. 100 μg/ml) | inhibitory effect ([7]; conc. 0.2 μg/ml) | inhibitory effect ([7]; conc. 0.8 μg/ml) | inhibitory effect ([7]; conc. 3.12 μg/ml) | inhibitory effect ([7]; conc. 12.5 μg/ml) | inhibitory effect ([7]; conc. 50 μg/ml) | inhibitory effect ([7]; conc. 100 μg/ml) | inhibitory effect ([8]; conc. 0.2 μg/ml) | inhibitory effect ([8]; conc. 0.8 μg/ml) | inhibitory effect ([8]; conc. 3.12 μg/ml) | inhibitory effect ([8]; conc. 12.5 μg/ml) | inhibitory effect ([8]; conc. 50 μg/ml) | inhibitory effect ([8]; conc. 100 μg/ml) | inhibitory effect ([9]; conc. 0.2 μg/ml) | inhibitory effect ([9]; conc. 0.8 μg/ml) | inhibitory effect ([9]; conc. 3.12 μg/ml) | inhibitory effect ([9]; conc. 12.5 μg/ml) | inhibitory effect ([9]; conc. 50 μg/ml) | inhibitory effect ([9]; conc. 100 μg/ml) | inhibitory effect ([10]; conc. 0.2 μg/ml) | inhibitory effect ([10]; conc. 0.8 μg/ml) | inhibitory effect ([10]; conc. 3.12 μg/ml) | inhibitory effect ([10]; conc. 12.5 μg/ml) | inhibitory effect ([10]; conc. 50 μg/ml) | inhibitory effect ([10]; conc. 100 μg/ml) | inhibitory effect ([11]; conc. 0.2 μg/ml) | inhibitory effect ([11]; conc. 0.8 μg/ml) | inhibitory effect ([11]; conc. 3.12 μg/ml) | inhibitory effect ([11]; conc. 12.5 μg/ml) | inhibitory effect ([11]; conc. 50 μg/ml) | inhibitory effect ([11]; conc. 100 μg/ml) | inhibitory effect ([12]; conc. 0.2 μg/ml) | inhibitory effect ([12]; conc. 0.8 μg/ml) | inhibitory effect ([12]; conc. 3.12 μg/ml) | inhibitory effect ([12]; conc. 12.5 μg/ml) | inhibitory effect ([12]; conc. 50 μg/ml) | inhibitory effect ([12]; conc. 100 μg/ml) | inhibitory effect ([13]; conc. 0.2 μg/ml) | inhibitory effect ([13]; conc. 0.8 μg/ml) | inhibitory effect ([13]; conc. 3.12 μg/ml) | inhibitory effect ([13]; conc. 12.5 μg/ml) | inhibitory effect ([13]; conc. 50 μg/ml) | inhibitory effect ([13]; conc. 100 μg/ml) | inhibitory effect ([14]; conc. 0.2 μg/ml) | inhibitory effect ([14]; conc. 0.8 μg/ml) | inhibitory effect ([14]; conc. 3.12 μg/ml) | inhibitory effect ([14]; conc. 12.5 μg/ml) | inhibitory effect ([14]; conc. 50 μg/ml) | inhibitory effect ([14]; conc. 100 μg/ml)

OC(Cn1cncn1)(Cn1cncn1)c1ccc(F)cc1F [Fluconazole]
0.12 to 64 µg/mL: MIC (Yeast)

N[C@@H](C(=O)N[C@@H]1C(=O)N2C(C(=O)O)=C(Cl)CS[C@H]12)c1ccccc1 [Cefaclor]
0.25 to 64 µg/mL: MIC (Gram negative bacteria)
0.06 to 32 µg/mL: MIC (Gram positive bacteria)

NC(=O)c1cnccn1 [Pyrazinamide]
6 to 60 µg/mL: MIC (M. tuberculosis)

CCn1cc(C(=O)O)c(=O)c2cc(F)c(N3CCNCC3)cc21 [Norfloxacin]
0.03 to 64 µg/mL: MIC Drug alone (Gram negative bacteria)
0.12 to 32 µg/mL: MIC (Gram positive bacteria)

CC[C@@H](CO)NCCN[C@@H](CC)CO [Ethambutol]
1 to 5 µg/mL: MIC (M. tuberculosis)

CO/N=C(\C(=O)N[C@@H]1C(=O)N2C(C(=O)O)=C(CSc3nc(=O)c(O)nn3C)CS[C@H]12)c1csc(N)n1 [Ceftrioxone]
0.12 to 32 µg/mL: MIC Drug alone (Gram positive bacteria)
0.03 to 32 µg/mL: MIC Drug alone (Gram negative bacteria)
